Where a SMILES comes first, the peptide text is derived from it.

The first data set can be described thus: Peptide hydrogel formation, vial-inverting method. The data set is classed as physicochemical. The arrangement: key to EXP / GELATION: 0: no hydrogel; 1: hydrogel. As to conditions: 60 mM peptide in ultrapure water; pH 6.5-8.5 (1 N NaOH), ultrasonication, standing 48 h; vial-inverting method; no gel at 30 mM. The protocol:
After validating the efficiency of APHC in predicting tetrapeptide hydrogels, we detailed the phase state of 165 synthesized tetrapeptides and the observed assembly behavior in an aqueous solution.
This work defines hydrogel formation as a self-supporting, non-flowing mixture of water and hydrogelator by the vial-inverting method. All purified tetrapeptides were dissolved in ultrapure water (to form a 30 mM solution initially), followed by the stepwise addition of 1 N NaOH solution to adjust the overall aqueous pH to 6.5–8.5. Meanwhile, a short-term ultrasonication treatment was applied after each pH adjustment to facilitate peptide solubilization and speed up peptide self-assembly. […] The mixture was allowed to stand in for another 48 h for complete hydrogelation. Upon the absence of gelation phenomenon during the aforementioned loops, we increased the peptide concentration (60 mM, 90 mM, and 120 mM were selected) and re-started such gelation operation loop to explore their gelation feasibility.
Take `CC[C@H](C)[C@H](NC(=O)[C@@H](N)CS)C(=O)N[C@@H](Cc1ccc(O)cc1)C(=O)N[C@@H](Cc1ccccc1)C(=O)O` [CIYF] (H-CIYF-OH): the State entry was “gel”.

Consider `CC[C@H](C)[C@H](NC(=O)[C@H](CC(C)C)NC(=O)[C@@H](NC(=O)[C@@H](N)C(C)C)[C@@H](C)CC)C(=O)O` [VILI] (H-VILI-OH), for which the State entry is reported as “gel”.

As for `CC(C)C[C@H](NC(=O)[C@H](Cc1c[nH]c2ccccc12)NC(=O)[C@@H](NC(=O)[C@@H](N)CCCCN)C(C)C)C(=O)O` [KVWL] (H-KVWL-OH), the State result is “gel”.

Consider `NCCCC[C@H](NC(=O)[C@@H](N)Cc1c[nH]c2ccccc12)C(=O)N[C@@H](Cc1ccccc1)C(=O)N[C@@H](Cc1ccccc1)C(=O)O` [WKFF] (H-WKFF-OH), for which the State entry is listed as “gel”.

Consider `CC[C@H](C)[C@H](NC(=O)[C@@H](NC(=O)[C@@H](N)CC(C)C)C(C)C)C(=O)N[C@@H](Cc1ccccc1)C(=O)O` [LVIF] (H-LVIF-OH), for which the State entry is reported as “gel”.

The same data set, now with this note: 90 mM peptide in ultrapure water; pH 6.5-8.5 (1 N NaOH), ultrasonication, standing 48 h; vial-inverting method; no gel at lower concentrations.
Regarding `CSCC[C@H](NC(=O)[C@@H](N)CCSC)C(=O)N[C@@H](CC(C)C)C(=O)N[C@@H](CC(C)C)C(=O)O` [MMLL] (H-MMLL-OH), the State result was “gel”.

Regarding `CC[C@H](C)[C@H](NC(=O)[C@@H](NC(=O)[C@@H](NC(=O)[C@@H]1CCCN1)C(C)C)[C@@H](C)CC)C(=O)O` [PVII] (H-PVII-OH), the State result is “gel”.

The same data set, now with this note: concentration at which the state was recorded: lowest of 30, 60, 90, 120 mM that gave a gel; 120 mM for non-gelating peptides.
Turning to `CSCC[C@H](NC(=O)[C@@H](N)CCSC)C(=O)N[C@@H](CC(C)C)C(=O)N[C@@H](CC(C)C)C(=O)O` [MMLL] (H-MMLL-OH), the “Concentration” value worked out at 90000 µM.

Turning to `CC[C@H](C)[C@H](NC(=O)[C@@H](N)CS)C(=O)N[C@@H](Cc1ccc(O)cc1)C(=O)N[C@@H](Cc1ccccc1)C(=O)O` [CIYF] (H-CIYF-OH), the “Concentration” value was determined as 60000 µM.

Take `CC[C@H](C)[C@H](NC(=O)[C@@H](NC(=O)[C@@H](NC(=O)[C@@H]1CCCN1)C(C)C)[C@@H](C)CC)C(=O)O` [PVII] (H-PVII-OH): the “Concentration” value turned out to be 90000 µM.

`CC[C@H](C)[C@H](NC(=O)[C@H](CC(C)C)NC(=O)[C@@H](NC(=O)[C@@H](N)C(C)C)[C@@H](C)CC)C(=O)O` [VILI] (H-VILI-OH): the “Concentration” value came to 60000 µM.

Consider `CC(C)C[C@H](NC(=O)[C@H](Cc1c[nH]c2ccccc12)NC(=O)[C@@H](NC(=O)[C@@H](N)CCCCN)C(C)C)C(=O)O` [KVWL] (H-KVWL-OH), for which the “Concentration” value stood at 60000 µM.

Consider `NCCCC[C@H](NC(=O)[C@@H](N)Cc1c[nH]c2ccccc12)C(=O)N[C@@H](Cc1ccccc1)C(=O)N[C@@H](Cc1ccccc1)C(=O)O` [WKFF] (H-WKFF-OH), for which the “Concentration” value stood at 60000 µM.

In the case of `CC[C@H](C)[C@H](NC(=O)[C@@H](NC(=O)[C@@H](N)CC(C)C)C(C)C)C(=O)N[C@@H](Cc1ccccc1)C(=O)O` [LVIF] (H-LVIF-OH), the “Concentration” value stood at 60000 µM.

Staying with this data set, now noted: peptide concentration 60 mM; vial-inverting method; 1 = hydrogel, 0 = no hydrogel.
In turn, `CC[C@H](C)[C@H](NC(=O)[C@@H](N)CS)C(=O)N[C@@H](Cc1ccc(O)cc1)C(=O)N[C@@H](Cc1ccccc1)C(=O)O` [CIYF] (H-CIYF-OH) registered a GELATION of 1.

Take `CC[C@H](C)[C@H](NC(=O)[C@H](CC(C)C)NC(=O)[C@@H](NC(=O)[C@@H](N)C(C)C)[C@@H](C)CC)C(=O)O` [VILI] (H-VILI-OH): the GELATION came to 1.

The compound `CC(C)C[C@H](NC(=O)[C@H](Cc1c[nH]c2ccccc12)NC(=O)[C@@H](NC(=O)[C@@H](N)CCCCN)C(C)C)C(=O)O` [KVWL] (H-KVWL-OH) came in with a GELATION of 1.

Compound `NCCCC[C@H](NC(=O)[C@@H](N)Cc1c[nH]c2ccccc12)C(=O)N[C@@H](Cc1ccccc1)C(=O)N[C@@H](Cc1ccccc1)C(=O)O` [WKFF] (H-WKFF-OH) showed a GELATION of 1.

Regarding `CC[C@H](C)[C@H](NC(=O)[C@@H](NC(=O)[C@@H](N)CC(C)C)C(C)C)C(=O)N[C@@H](Cc1ccccc1)C(=O)O` [LVIF] (H-LVIF-OH), the GELATION was 1.

The data set is the same for the next values; noted with them: peptide concentration 90 mM; vial-inverting method; 1 = hydrogel, 0 = no hydrogel.
For the compound `CSCC[C@H](NC(=O)[C@@H](N)CCSC)C(=O)N[C@@H](CC(C)C)C(=O)N[C@@H](CC(C)C)C(=O)O` [MMLL] (H-MMLL-OH), the GELATION worked out at 1.

In the case of `CC[C@H](C)[C@H](NC(=O)[C@@H](NC(=O)[C@@H](NC(=O)[C@@H]1CCCN1)C(C)C)[C@@H](C)CC)C(=O)O` [PVII] (H-PVII-OH), the GELATION is listed as 1.

Still in this data set, the particulars now being: vial-inverting method; representative hydrogels pH between 7.0 to 7.5.
As to `NCCCC[C@H](NC(=O)[C@@H](N)Cc1c[nH]c2ccccc12)C(=O)N[C@@H](Cc1ccccc1)C(=O)N[C@@H](Cc1ccccc1)C(=O)O` [WKFF] (H-WKFF-OH), the “hydrogel formation (in words)” value was “hydrogels”.

The next data set in a line: Transmission electron microscope (negative staining) of peptide assemblies. As to conditions: TEM, negative staining with uranyl acetate, 120 kV; line of the table gives 60 mM.
Experimental: We used the negative staining technique to observe the morphologies formed by peptides. A micropipette was used to load 10 μL of sample solution to a carbon-coated copper grid, and we used a piece of filter paper to remove the excess solution. After rinsing the grid with the deionized water, we used uranyl acetate to stain the sample for 1 minute and then rinsed the grid with deionized water again.
Take `CC[C@H](C)[C@H](NC(=O)[C@@H](N)CS)C(=O)N[C@@H](Cc1ccc(O)cc1)C(=O)N[C@@H](Cc1ccccc1)C(=O)O` [CIYF] (H-CIYF-OH): the Morphology entry is recorded as “fibre”.

As for `CC[C@H](C)[C@H](NC(=O)[C@H](CC(C)C)NC(=O)[C@@H](NC(=O)[C@@H](N)C(C)C)[C@@H](C)CC)C(=O)O` [VILI] (H-VILI-OH), the Morphology result is listed as “hybrid(sheet+fibre)”.

`CC(C)C[C@H](NC(=O)[C@H](Cc1c[nH]c2ccccc12)NC(=O)[C@@H](NC(=O)[C@@H](N)CCCCN)C(C)C)C(=O)O` [KVWL] (H-KVWL-OH): the Morphology entry is reported as “fibre”.

As to `CC[C@H](C)[C@H](NC(=O)[C@@H](NC(=O)[C@@H](N)CC(C)C)C(C)C)C(=O)N[C@@H](Cc1ccccc1)C(=O)O` [LVIF] (H-LVIF-OH), the Morphology entry is “fibre”.

The same data set, now with this note: TEM, negative staining with uranyl acetate, 120 kV; line of the table gives 90 mM.
Turning to `CSCC[C@H](NC(=O)[C@@H](N)CCSC)C(=O)N[C@@H](CC(C)C)C(=O)N[C@@H](CC(C)C)C(=O)O` [MMLL] (H-MMLL-OH), the Morphology result is “sheet”.

With `CC[C@H](C)[C@H](NC(=O)[C@@H](NC(=O)[C@@H](NC(=O)[C@@H]1CCCN1)C(C)C)[C@@H](C)CC)C(=O)O` [PVII] (H-PVII-OH), the Morphology entry is listed as “fibre”.

Still in this data set, the particulars now being: aqueous solution or hydrogel; negative staining.
For `NCCCC[C@H](NC(=O)[C@@H](N)Cc1c[nH]c2ccccc12)C(=O)N[C@@H](Cc1ccccc1)C(=O)N[C@@H](Cc1ccccc1)C(=O)O` [WKFF] (H-WKFF-OH), the “morphology by TEM (in words)” value was “entangled nanofibers”.
